Consider five compounds from US7199259B2, “Resolution of α-(phenoxy)phenylacetic acid derivatives” (Metabolex, Inc., priority 2003, dated 2007).

The nature of series [1]: Solubility in methylene chloride. It counts as physicochemical.
Series [2] concerns the target cytochrome P450 2C9 (Homo sapiens, UniProt P11712). Conditions: cited from earlier work.
Series [3] is described as follows: Solubility of racemic CPTA sodium salt in water. It counts as physicochemical. As to conditions: sodium hydroxide added to pH about 12.6 versus pH about 9.5. How it is done: A 100-mL water jacketed resin pot with a magnetic stirrer was connected to a recirculating water bath and charged with 3.48 g of the racemic CPTA sodium salt and 20.0 g of water. The bath temperature was warmed to 35° C., and the slurry was stirred for one hour. The agitator was shut off, and the solid was allowed to settle for 30 min. The pH was 9.4. A 0.3036 g-sample of the supernate was removed and diluted to 25.00 mL with acetonitrile, and the solution was assayed by HPLC analysis. Analysis was repeated at 47° C. and at 19° C. An additional 3.01 g of CPTA sodium salt was added to maintain a slurry at the higher temperature, and 25 g of water was added to give a thinner slurry at the lower temperature. The pH was increased to 12.7 at ambient temperature by the addition of 50% aqueous sodium hydroxide, and the analysis was continued at 13.5, 25, 34, and 42° C.

Series [4] can be described thus: Solubility of CPTA CAF D-Base salts in 2-propanol containing 11% free CPTA. It counts as physicochemical. As to conditions: 2-propanol with 11% free CPTA, FIG. 3. The protocol:
“Solvent” was prepared by dissolving 2.40 g of racemic CPTA in 19.42 g of 2-propanol (Fisher HPLC Grade) or 4.90 g of racemic CPTA in 31.4 g of ethanol. The respective concentrations of CPTA in solution were 11.0% and 13.5%. Solubility of the (−)-CPTA·CAF D-Base Salt (i.e., (−)-Salt) or (+)-CPTA.CAF D-Base Salt (i.e., (+)-Salt) was determined by a gravimetric method. At a given temperature, a portion of the supernatant liquid from a saturated solution was remove to a vial of known weight. The solution weight was determined, and the volatile solvent was evaporated with a purge of nitrogen. The solid was further dried to constant weight in a vacuum oven at about 50° C./1 mm Hg. The vial was re-weighed to determine the loss of volatile solvent and weight of solid remaining. From this, the amount of dissolved CPTA from the “solvent” could be calculated. Subtracting the weight of total solid from the CPTA gave the weight of soluble salt in the solvent.

Series [5] can be described thus: Solubility of diastereomeric CPTA-CAF D base salts in 2-propanol. The format is physicochemical. As to conditions: for Wt % in solution: slurry held overnight. The protocol: Samples of (−)-CPTA CAF D Base and (+)-CPTA CAF D Base (>98% ee) were added to 2-propanol in the amounts shown in Table 8, and mixed using an ultrasonic bath. All samples remained slurries. The slurries were held overnight at the temperature listed, then samples of the supernates were removed and analyzed by quantitative HPLC analysis to determine the CPTA concentration. Additionally, 8.00 g of (−)-CPTA CAF D Base salt required 54.2 g of 2-propanol for solution at 82° C. (14.7 wt %).

Chain of cytochrome P450 2C9 (P11712 whole entry): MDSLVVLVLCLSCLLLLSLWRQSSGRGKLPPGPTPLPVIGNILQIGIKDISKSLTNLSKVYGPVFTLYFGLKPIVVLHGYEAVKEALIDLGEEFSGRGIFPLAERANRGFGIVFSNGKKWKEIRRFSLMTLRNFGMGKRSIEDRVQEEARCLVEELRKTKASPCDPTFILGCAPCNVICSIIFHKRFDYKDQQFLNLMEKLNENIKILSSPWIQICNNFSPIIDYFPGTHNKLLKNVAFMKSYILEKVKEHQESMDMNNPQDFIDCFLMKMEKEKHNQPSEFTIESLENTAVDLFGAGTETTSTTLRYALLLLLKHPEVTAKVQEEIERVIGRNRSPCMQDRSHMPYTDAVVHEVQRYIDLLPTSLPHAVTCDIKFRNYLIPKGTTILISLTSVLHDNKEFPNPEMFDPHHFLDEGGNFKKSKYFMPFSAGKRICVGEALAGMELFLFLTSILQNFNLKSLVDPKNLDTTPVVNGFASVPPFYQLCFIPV

In the case of `O=C(O)C(Oc1cccc(C(F)(F)F)c1)c1ccc(Cl)cc1` (racemic) [halofenic acid, (4-chlorophenyl)(3-trifluoromethylphenoxy)acetic acid], in series [1], the “solubility in methylene chloride” value is given as “less than 3.4%”. Further, the “inhibition of cytochrome P450 2C9” value in series [2] (racemic acid) is reported as “inhibits”.
For `O=C([O-])C(Oc1cccc(C(F)(F)F)c1)c1ccc(Cl)cc1.[Na+]` (racemic) [sodium salt of racemic CPTA], the “aqueous solubility, effect of raising pH” value in series [3] is “decreased the aqueous solubility”.
For the compound `NC(CO)C(O)c1ccc([N+](=O)[O-])cc1.O=C(O)C(Oc1cccc(C(F)(F)F)c1)c1ccc(Cl)cc1` (single isomer, unassigned; (+)) [(+)-CPTA CAF D Base Salt], the “solubility in 2-propanol containing 11% free CPTA versus pure 2-propanol” value in series [4] is “greater solubility”. Further, the “Wt % in solution” value worked out at 1.32 Wt % in series [5] (8.5 °C), 1.85 Wt % in series [5] (20.0 °C) and 6.03 Wt % in series [5] (45.8 °C).
Take `NC(CO)C(O)c1ccc([N+](=O)[O-])cc1.O=C(O)C(Oc1cccc(C(F)(F)F)c1)c1ccc(Cl)cc1` (single isomer, unassigned; (-)) [(−)-CPTA CAF D Base Salt]: in series [4], the “solubility in 2-propanol containing 11% free CPTA versus pure 2-propanol” value is on record as “greater solubility”. Besides, the entries for the “Wt % in solution” value in series [5] (7.8 °C), in series [5] (19.4 °C) and in series [5] (45.3 °C) were 0.376 Wt %, 0.688 Wt % and 2.35 Wt %, respectively. For the same compound, the “solubility in 2-propanol (amount required for solution)” value in series [5] (82 °C, 8.00 g salt in 54.2 g 2-propanol) was 14.7 wt %. Moreover, in series [5] (FIG. 1 profiles), the “solubility in 2-propanol relative to the (+)-CPTA form” value is listed as “approximately three times less soluble”.
`O=C(O)C(Oc1cccc(C(F)(F)F)c1)c1ccc(Cl)cc1` (single isomer, unassigned; (-)) [(−)-enantiomer of halofenic acid]: in series [2] (relative to (+)-enantiomer of halofenic acid), the “ability to inhibit cytochrome P450 2C9 compared to the (+)-enantiomer” value is recorded as “about twenty-fold less active”.
